In a melting point compilation (Tetko et al.; mined from patent text by program, amines drawn as free bases though some values may be those of a salt):

SMILES | melting point [°C]
CC1(C)OC(=O)C(Oc2ccc3ccccc3n2)=C1c1ccc(S(C)(=O)=O)cc1 | 141 to 142
CO[C@H]1CCN(C(=O)c2cc(-c3ccccc3)c(=O)n3c2-c2sccc2C3)C1 | 159 to 162
O=c1[nH]c2c(CCO)c3ccccc3n2c2ccccc12 | 248 to 252
CCCN1C(=O)C2CC(c3ccc([N+](=O)[O-])cc3)(C2)C1=O | 149 to 151
C[C@H](CN(C(=O)C1C2CCC1CC2)c1ccccn1)N1CCN(c2cccc3[nH]ccc23)CC1 (stereo not given in full) | 176 to 179
O=C(c1ccc(Cl)cc1)C1(n2cnc(Cl)n2)CC1 | 85
CCOC(=O)C(Cc1ccccc1)NC(=O)COc1ccc(C2=NNC(=O)NC2)cc1 (stereo not given) | 148 to 150
CC(OP(=O)(c1ccccc1)c1ccccc1)c1ccccc1C(C)OP(=O)(c1ccccc1)c1ccccc1 (stereo not given) | 147 to 148
CC(C)(C)OC(=O)N1CCc2c(n(CC(=O)Nc3ccccc3)c3cc(Cl)c(Cl)cc23)CC1 | 172
CNC(=O)C(=NOC)c1cccc(Cl)c1COc1cc(C(F)(F)F)nc(OC(C)C)n1 | 116 to 118
CC(C)CSc1nc2c(cc1C#N)C(=O)CC(C)(C)C2 | 75 to 76
O=C(O)c1cn(-c2ccc(F)cc2)c2c(F)c(N3Cc4cccc(O)c4C3)c(F)cc2c1=O | > 300
CCCOC(=O)c1cncn1C(c1ccccc1)c1ccccc1 | 81
COC(=O)[C@H](Cc1ccc(OS(=O)(=O)C(F)(F)F)c(C2SCCS2)c1)NC(C)=O | 116 to 118
Cc1ccc(-n2cc(C(=O)O)c(=O)c3cc(F)c(F)c(F)c32)cc1 | 110 to 111
CS(=O)(=O)c1csc(CC(=O)C(=O)c2ccc(F)cc2)c1 | 174 to 175
CCCCCCCCCCCCCCCCN=C=O | 107 to 109
CSc1sc(C(=O)N2CCCC2)c2c1-c1oncc1C(C)(C)C2 | 114 to 116
CCCCCCCCCCOc1cc(N)cc(OCCCCCCCCCC)c1 | 48 to 50
C=C1CS(=O)C2C(NC(=O)COc3ccccc3)C(=O)N2C1C(=O)OCc1ccc([N+](=O)[O-])cc1 (stereo not given) | 200 to 201
Oc1ccc(OCc2nnc(C3CC3)s2)cc1 | 79 to 83
CNc1nc(-c2cccc(NC(=O)c3ccc(OC)c(Cl)c3)c2)c2cc(OC)c(OC)cc2n1 | 130 to 132
CN(C)C(=O)C(C#N)=Cc1cc(O)c(O)c([N+](=O)[O-])c1 | 183 to 185
O=C1c2ccccc2C(=O)N1OCc1ccn(C(c2ccccc2)(c2ccccc2)c2ccccc2)n1 | 177 to 179

SMILES | melting point [°C]
O=S(=O)(Nc1ccccc1OCCCN1CCC(OC(c2ccccc2)c2ccccc2)CC1)c1ccccc1 | 131 to 132
NS(=O)(=O)c1ccc(-c2cnn(Cc3c(F)cc(F)cc3F)c(=O)c2-c2ccc(F)cc2)cc1 | 201 to 203
CN1CCC2(c3ccccc3)OC2C1 (stereo not given) | 44 to 45
Cc1ccc(NP(N)(N)=O)c([N+](=O)[O-])c1 | > 180
C[C@H](Oc1c(I)c(C(=O)NC(CO)CO)c(I)c(C(=O)NC(CO)CO)c1I)C(N)=O | 110
O=S1(=O)c2ccccc2Cc2ccc(-c3nnn[nH]3)cc21 | 233
CCCCOc1c(NC(C)C(C)(C)C)c(=O)c1=O (stereo not given) | 90 to 99
COc1ccc(-c2cc(C(C)(C)C)sc2-c2ccc(OC)cc2)cc1 | 112 to 115
Cc1cc(C)cc(-c2[nH]c3ccc(-c4nccs4)cc3c2CCN)c1 | 98.5 to 100
Cn1c(C(F)(F)F)nn(-c2cc(F)c(C#N)cc2Cl)c1=O | 105
COc1cc2c(cc1O[Si](C)(C)C(C)(C)C)CN(C(=O)OC(C)(C)C)CC2 | 46 to 49
Cc1nc2c3c(ccn2c1C)C(O)CC(c1ccsc1)N3 (stereo not given) | 192 to 194
S=c1[nH]ccn1Cc1ccco1 | 106 to 108
N#CCCNC(=O)c1cccc(-c2ccc3ncn(Cc4ccc(Cl)cc4Cl)c3n2)c1 | 218 to 219
CCOC(=O)C1=C(N)NC(C)=CC1c1cccc(Cl)c1 (stereo not given) | 140
OC1CNc2nc3ccccc3n2C1 (stereo not given) | 158 to 160
Cc1ncc2cc(-c3c(Cl)cccc3Cl)c(NC(=O)N(C)C)nc2n1 | 177 to 181
O=C(O)c1cnc2cc(O)ccc2c1 | > 260
COC1CN(c2ccc([N+](=O)[O-])cc2F)C1 | 57.5 to 58
CS(=O)(=O)c1ccc(-c2cnn(CC(F)(F)F)c(=O)c2SCc2ccccc2)cc1 | 108 to 111
CN1C(=O)C2(C(=O)N(Cc3ccccn3)c3ccccc32)c2cc3c(cc21)OCCO3 (stereo not given) | 87 to 89
CC1(C)CC(NC(=O)NCc2ccccc2)c2cc(C#N)ccc2O1 (stereo not given) | 140 to 141
CC1(CCn2nc(-c3ccncc3)oc2=O)Cn2cc([N+](=O)[O-])nc2O1 (stereo not given) | 147 to 149
CCOC(=O)c1[nH]c(-n2ccc(OCc3ccccc3)cc2=O)nc1C | 135 to 136

SMILES | melting point [°C]
O=C(c1ccccc1)c1cc2cc(Cl)ncc2[nH]1 | 194 to 197
Cc1cc(F)ccc1C(=C(C=CC(O)CC(=O)CC(=O)OC(C)(C)C)c1nnnn1C)c1ccc(F)cc1C (stereo not given) | 65 to 72
COC(=O)c1cc2ccccc2n1C1=CC(C)(C)Oc2ccc(C#N)cc21 | 197 to 200
O=C(NCCCO)c1ccc[nH]1 | 71 to 73
Cc1[nH]cnc1CC1CCc2[nH]c3c(F)cccc3c2C1=O (stereo not given) | 135 to 140
COc1ccc(-c2c(Cl)c(CN3C(=O)CSC3=O)nc3sc4c(c23)CC[C@H](C(N)=O)C4)cc1 | 145 to 148
CCOCCO[C@@H]1c2ccn3c(C)c(C)nc3c2N[C@H](c2ccccc2)[C@H]1OC(=O)OCCCC(Cl)CC (stereo not given in full) | 124
CN1C(=O)CCC2(C)c3ccc(Sc4ccncc4)cc3CCC12 (single isomer, unassigned; (+)) | 157 to 158
COc1ccc2[nH]c(SCc3ncnc(N4CCCC4)c3C)nc2c1 | 104 to 106
CCC1Cc2c(C)c(O)c(C)c(C)c2O1 (racemic) | 73 to 75
CC(=O)C1CCC2C3CCC4=CC(=O)CCC4(C)C3C(Cl)CC12C (stereo not given) | 185 to 188
Nc1nc2ccccc2c2c1ncn2CCOCCCc1nccs1 | 134 to 135
Cc1ncc2cc(-c3cc(C(F)(F)F)cc(C(F)(F)F)c3)ccc2n1 | 208 to 210
O=C(O)Cc1c(C(=O)c2ccccc2)[nH]c2c(Cl)cccc12 | 190 to 193
Clc1nc(N2CCOCC2)c2ccccc2n1 | 103 to 105
O=C1NC(NCC2CC2)=N/C1=C\c1c[nH]c2ncc(N3CCOCC3)cc12 | 331
CC1CC(=O)NN=C1c1ccc(C2=NNC(=O)CC2C)cc1 (stereo not given) | > 300
Cn1c(=O)cc(-c2cccc(Cl)c2)c2cc(C(N)(c3ccc(Cl)cc3)c3cnccc3Cl)ccc21 (stereo not given) | 180
COc1ccc2c(c1)CCC1C2CCC2(C)C1CCC2N(C=O)CCN(C)C (stereo not given) | 98 to 100
Cc1cccc(C2(C)OC(C)C(C)O2)c1NC(=O)CCl (stereo not given) | 55 to 57
Cn1nnnc1CC(O)(c1ccc(F)cc1)c1ccc(F)cc1 | 116 to 118
CN1CCc2c(CO)csc2C(c2ccccc2)C1 (stereo not given) | 115
